The values below come from US11643429B2, “Compounds and methods for the treatment of ocular disorders” (Azura Ophthalmics Ltd., priority 2019, dated 2023).

Molecules are shown by their SMILES.

Data set [1] is described as follows: Rabbit Cornea Homogenate Stability Assay (Rabbit Cornea Esterase Assay). It is filed as in vitro ADME. Particulars: New Zealand White, 37° C., half-life of parent conjugate. Here is the method:
Determining Rabbit Cornea Homogenate stability of the test compounds was performed using HPLC-MS. The assay was performed at two concentrations of Rabbit Cornea Homogenate (0.15 mg/ml and 0.45 mg/ml total protein) so that any hydrolysis observed could be assigned as esterase dependent or not.
Five rabbit corneas (e.g. New Zealand Whites) of approx. 50 mg each were sliced and scraped with a scalpel and tweezers until reduced to small (1-3 mm), thin pieces. These were transferred into a tared vial and accurately weighed, then diluted with 10 volumes aqueous PBS pH7.4
Sample was cooled intermittently on ice and shear homogenized for 3 minutes, then centrifuged for 3 min at 3000 rpm. The supernatant was pipetted off into a vial, and total protein concentration determined at 280 nm. Sample was stored at −78° C.
10 mM Compound stocks were diluted to 100 μM in a 96 deep-well plate: 10 μl of 10 mM Compound stock was added to 990 μl 50 mM HEPES, pH7.5 buffer.
Compounds were further diluted to 10 μM: 100 μl of 100 μM compound was added to 900 μl 50 mM HEPES, pH7.5 buffer.
Esterase homogenate was diluted to 300 ng/μl and 900 ng/μl
A heater shaker was set to 37° C. Into a suitable 96 well plate (Run Plate), 75 μl of 300 or 900 ng/μl esterase homogenate was pipetted into each of the required wells (2 min, 5 min, 10 min, 20 min and 45 min). The plate was sealed and then warmed at 37° C. for 5 min. Another 96 well PCR plate was put on ice (Kill Plate). To this was added 100 μl of MeCN to each well, labelled 0 min 2 min, 5 min, 10 min, 20 min and 45 min. The plate was covered to minimise evaporation. For the T=0 sample only, to the 100 μl cold MeCN stop solution was added 50 μl of 300 or 900 ng/μl esterase homogenate followed by 50 μl of 10 μM compound solution For the remaining timepoints, 75 μl of 10 μM compound solution was added to the Run Plate starting from T=45 min row and ending with T=2 min row. At the appropriate time point, 100 μl of the assay mixture was added to the matching kill plate well containing 100 μl of cold MeCN. Samples were analysed as soon as practicable by LCMS (Waters Xevo TQ-S or Micromass Ultima). Parent conjugate and parent concentrations were determined against appropriate standard response curves and the half-life (T1/2) of the parent conjugate was calculated using the peak area of the parent conjugate at each time point in the linear region of the log-linear plot.

Data set [2] in a line: Aqueous Hydrolysis Stability Assay. Particulars: New Zealand White, rabbit, rabbit cornea homogenate (esterase assay) in HEPES buffer, pH 7.5; ND, estimated from esterase assay; read-out: T1/2 Aq Stability. In kind it is physicochemical.

For the compound `CC[C@H]1OC(=O)[C@H](C)[C@@H](O[C@H]2C[C@@](C)(OC)[C@@H](O)[C@H](C)O2)[C@H](C)[C@@H](O[C@@H]2O[C@H](C)C[C@H](N(C)C)[C@H]2OC(=O)O[C@H](C)C(=O)OC)[C@](C)(O)C[C@@H](C)CN(C)[C@H](C)[C@@H](O)[C@]1(C)O` [Compound 10, Methyl (R)-2-(((((2S,3R,4S,6R)-4-(dimethylamino)-2-(((2R,3S,4R,5R,8R,10R,11R,12S,13S,14R)-2-ethyl-3,4,10-trihydroxy-13-(((2R,4R,5S,6S)-5-hydroxy-4-methoxy-4,6-dimethyltetrahydro-2H-pyran-2-yl)oxy)-3,5,6,8,10,12,14-heptamethyl-15-oxo-1-oxa-6-azacyclopentadecan-11-yl)oxy)-6-methyltetrahydro-2H-pyran-3-yl)oxy)carbonyl)oxy)propanoate], the half-life at 5 µM in data set [1] (pH 7.5, Rabbit Cornea Homogenate 0.15 mg/ml total protein, read-out: T1/2 Esterase (min) (0.15 mg/ml Homogenate)) was 53 min; in data set [1] (pH 7.5, Rabbit Cornea Homogenate 0.45 mg/ml total protein, read-out: T1/2 Esterase (min) (0.45 mg/ml Homogenate)), 49 min; in data set [2], approximately 51 min.
